Assay results from PubChem BioAssay AID743471 (Broad Institute, 2014).

Test system: HepG2 viability, ATP luminescence (CellTiter-Glo), 72 h
Assay: viability loss in HepG2 hepatoma cells – cell-based, luminescence, dry powder, set 12, cytotoxicity control, dose response (AID 743471)

Structure (SMILES) | AC35 [µM]
C=C([C@@H](O)[C@@H](C)O)[C@@H](OC)[C@]1(C)Cc2cc3cc(O[C@H]4CC(OC5CC(O)C(O)C(C)O5)C(O)C(C)O4)cc(O)c3c(O)c2C(=O)[C@H]1OC1CC(OC2CC(OC3CC(C)(O)C(O)C(C)O3)C(O)C(C)O2)C(O)C(C)O1 (some centres not stated) | 0.116
COc1ccc(C(=O)CC2(O)C(=O)Nc3c(Cl)ccc(Cl)c32)cc1 (configuration not stated) | 8.13
